Results taken from patent US10448639B2, “Fungicidal pyrazoles” (FMC CORPORATION, priority 2009, dated 2019).
Where two headings read alike, the source gives them in different places.

What was measured:
[1] = tested on: Puccinia recondita f. sp. tritici; experiment: Test I: wheat leaf rust, preventive spray on wheat seedlings, visual disease rating; details: for pest or weed control at 200 µg/mL: 192 h
Septoria nodorum = experiment: Test F: Septoria glume blotch, preventive spray on wheat seedlings, visual disease rating; details: for pest or weed control at 200 µg/mL: Parastagonospora nodorum, in Triticum aestivum, 192 h
Description: General protocol for preparing test suspensions for Tests A-J: the test compounds were first dissolved in acetone in an amount equal to 3% of the final volume and then suspended at the desired concentration (in ppm) in acetone and purified water (50/50 mix by volume) containing 250 ppm of the surfactant Trem® 014 (polyhydric alcohol esters). The resulting test suspensions were then used in Tests A-J. Spraying a 200 ppm test suspension to the point of run-off on the test plants was the equivalent of a rate of 500 g/ha. Unless otherwise indicated, the rating values indicate a 200 ppm test suspension was used. (An asterisk “*” next to the rating value indicates a 40 ppm test suspension was used.)
The test suspension was sprayed to the point of run-off on wheat seedlings. The following day the seedlings were inoculated with a spore suspension of Septoria nodorum (the causal agent of Septoria glume blotch) and incubated in a saturated atmosphere at 24° C. for 48 h, and then moved to a growth chamber at 20° C. for 6 days, after which time visual disease ratings were made.

Alternaria solani = experiment: Test C: tomato early blight, preventive spray on tomato seedlings, visual disease rating; details: for pest or weed control at 200 µg/mL: Alternaria solani, in Solanum lycopersicum, 168 h
[2] = tested on: Puccinia recondita f. sp. tritici; experiment: Test H: wheat leaf rust, curative spray on inoculated wheat seedlings, visual disease rating; details: for pest or weed control at 200 µg/mL: 144 h
[3] = tested on: Erysiphe graminis f sp. tritici; experiment: Test J: wheat powdery mildew, preventive spray on wheat seedlings, visual disease rating; details: for pest or weed control at 200 µg/mL: Blumeria graminis, in Triticum aestivum, 192 h
Septoria tritici = experiment: Test G: wheat leaf blotch, preventive spray on wheat seedlings, visual disease rating; details: for pest or weed control at 200 µg/mL: Zymoseptoria tritici, in Triticum aestivum, 504 h
Botrytis cinerea = experiment: Test B: tomato Botrytis, preventive spray on tomato seedlings, visual disease rating; details: for pest or weed control at 200 µg/mL: Botrytis cinerea, in Solanum lycopersicum, 120 h
[4] = wheat leaf rust, preventive, 100 = 100% disease control, 0 = no control relative to controls
[5] = Septoria glume blotch, 100 = 100% disease control, 0 = no control relative to controls
[6] = tomato early blight, 100 = 100% disease control, 0 = no control relative to controls
[7] = wheat leaf rust, curative, 100 = 100% disease control, 0 = no control relative to controls
[8] = wheat powdery mildew, 100 = 100% disease control, 0 = no control relative to controls
[9] = wheat leaf blotch, 100 = 100% disease control, 0 = no control relative to controls
[10] = tomato Botrytis, 100 = 100% disease control, 0 = no control relative to controls
[11] = wheat leaf rust, preventive spray, 100 = 100% disease control, 0 = no control
[12] = Septoria glume blotch on wheat, preventive spray, 100 = 100% disease control, 0 = no control
[13] = tomato early blight, preventive spray, 100 = 100% disease control, 0 = no control
[14] = wheat leaf rust, curative spray, 100 = 100% disease control, 0 = no control
[15] = wheat powdery mildew, preventive spray, 100 = 100% disease control, 0 = no control
[16] = wheat leaf blotch, preventive spray, 100 = 100% disease control, 0 = no control
[17] = tomato Botrytis, preventive spray, 100 = 100% disease control, 0 = no control

SMILES: Cc1ccc(Oc2c(-c3c(F)cc(F)cc3F)c(C)nn2C)cc1C#N [compound 250]
- Test I rating (% disease control) [1, 4]: 86%
- Test F rating (% disease control) (Septoria nodorum; [5]): 0%
- Test C rating (% disease control) (Alternaria solani; [6]): 0%
- Test H rating (% disease control) [2, 7]: 0%
- Test J rating (% disease control) [3, 8]: 100%
- Test G rating (% disease control) (Septoria tritici; [9]): 77%
- Test B rating (% disease control) (Botrytis cinerea; [10]): 98%

SMILES: Cc1nn(C)c(Nc2ccc(F)cc2Cl)c1-c1c(Cl)cccc1Cl [compound 334]
- Test I disease control rating ([1]; wheat leaf rust, sprayed the day before inoculation, 100 = 100% disease control, 0 = no disease control relative to controls): 97%
- Test F disease control rating (Septoria nodorum; Septoria glume blotch on wheat, 100 = 100% disease control, 0 = no disease control relative to controls): 0%
- Test C disease control rating (Alternaria solani; tomato early blight, 100 = 100% disease control, 0 = no disease control relative to controls): 0%
- Test H disease control rating ([2]; wheat leaf rust, sprayed after inoculation, 100 = 100% disease control, 0 = no disease control relative to controls): 0%
- Test J disease control rating ([3]; wheat powdery mildew, sprayed the day before inoculation, 100 = 100% disease control, 0 = no disease control relative to controls): 100%
- Test G disease control rating (Septoria tritici; wheat leaf blotch, sprayed the day before inoculation, 100 = 100% disease control, 0 = no disease control relative to controls): 100%
- Test B disease control rating (Botrytis cinerea; tomato Botrytis, 100 = 100% disease control, 0 = no disease control relative to controls): 100%

SMILES: COc1cc(OC)c(Nc2c(-c3c(F)cc(F)cc3F)c(C)nn2C)cc1Cl [compound 100]
- Test I rating (% disease control) [1, 11]: 41%
- Test F rating (% disease control) (Septoria nodorum; [12]): 0%
- Test C rating (% disease control) (Alternaria solani; [13]): 0%
- Test H rating (% disease control) [2, 14]: 0%
- Test J rating (% disease control) [3, 15]: 0%
- Test G rating (% disease control) (Septoria tritici; [16]): 48%
- Test B rating (% disease control) (Botrytis cinerea; [17]): 38%

SMILES: Cn1nc(C2CC2)c(-c2ccc(F)cc2Cl)c1Nc1ccc(F)cc1F [compound 108]
- Test I rating (% disease control) [1, 11]: 16%
- Test F rating (% disease control) (Septoria nodorum; [12]): 0%
- Test C rating (% disease control) (Alternaria solani; [13]): 0%
- Test H rating (% disease control) [2, 14]: 0%
- Test J rating (% disease control) [3, 15]: 97%
- Test G rating (% disease control) (Septoria tritici; [16]): 98%
- Test B rating (% disease control) (Botrytis cinerea; [17]): 97%

SMILES: COc1cc(F)ccc1-c1c(C)nn(C)c1Oc1c(F)cc(C#N)cc1F [compound 89]
- Test I rating (% disease control) [1, 11]: 0%
- Test F rating (% disease control) (Septoria nodorum; [12]): 0%
- Test C rating (% disease control) (Alternaria solani; [13]): 0%
- Test H rating (% disease control) [2, 14]: 0%
- Test J rating (% disease control) [3, 15]: 97%
- Test G rating (% disease control) (Septoria tritici; [16]): 99%
- Test B rating (% disease control) (Botrytis cinerea; [17]): 99%

SMILES: Cc1nn(C)c(Nc2c(F)cc(Cl)cc2F)c1-c1ccc(C#N)cc1Cl [Compound 336, 3-chloro-4-[5-[(4-chloro-2,6-difluorophenyl)amino]-1,3-dimethyl-1H-pyrazol-4-yl]-benzonitrile]
- pest or weed control at 200 µg/mL ([1]; read-out: Test I disease control rating): 100%
- pest or weed control at 200 µg/mL (Septoria nodorum; read-out: Test F disease control rating): 95%
- pest or weed control at 200 µg/mL (Alternaria solani; read-out: Test C disease control rating): 97%
- pest or weed control at 200 µg/mL ([2]; read-out: Test H disease control rating): 94%
- pest or weed control at 200 µg/mL ([3]; read-out: Test J disease control rating): 99%
- pest or weed control at 200 µg/mL (Septoria tritici; read-out: Test G disease control rating): 100%
- pest or weed control at 200 µg/mL (Botrytis cinerea; read-out: Test B disease control rating): 100%

SMILES: Cc1nn(C)c(Nc2c(F)cc(F)cc2Cl)c1-c1c(F)cccc1F [Compound 297, N-(2-chloro-4,6-difluorophenyl)-4-(2,6-difluorophenyl)-1,3-dimethyl-1H-pyrazol-5-amine]
- pest or weed control at 200 µg/mL ([1]; read-out: Test I rating (% disease control)): 100%
- pest or weed control at 200 µg/mL (Septoria nodorum; read-out: Test F rating (% disease control)): 90%
- pest or weed control at 200 µg/mL (Alternaria solani; read-out: Test C rating (% disease control)): 99%
- pest or weed control at 200 µg/mL ([2]; read-out: Test H rating (% disease control)): 0%
- pest or weed control at 200 µg/mL ([3]; read-out: Test J rating (% disease control)): 100%
- pest or weed control at 200 µg/mL (Septoria tritici; read-out: Test G rating (% disease control)): 100%
- pest or weed control at 200 µg/mL (Botrytis cinerea; read-out: Test B rating (% disease control)): 100%

SMILES: Cc1nn(C)c(Nc2cc(F)c(F)cc2F)c1-c1c(F)cc(C#N)cc1F [compound 138]
- Test I rating (% disease control) [1, 11]: 100%
- Test F rating (% disease control) (Septoria nodorum; [12]): 84%
- Test C rating (% disease control) (Alternaria solani; [13]): 96%
- Test H rating (% disease control) [2, 14]: 38%
- Test J rating (% disease control) [3, 15]: 98%
- Test G rating (% disease control) (Septoria tritici; [16]): 99%
- Test B rating (% disease control) (Botrytis cinerea; [17]): 99%

SMILES: Cc1nn(C)c(Oc2ccc(Br)c(C#N)c2)c1-c1c(F)cc(F)cc1F [compound 225]
- Test I rating (% disease control) [1, 4]: 79%
- Test F rating (% disease control) (Septoria nodorum; [5]): 0%
- Test C rating (% disease control) (Alternaria solani; [6]): 0%
- Test H rating (% disease control) [2, 7]: 0%
- Test J rating (% disease control) [3, 8]: 98%
- Test G rating (% disease control) (Septoria tritici; [9]): 99%
- Test B rating (% disease control) (Botrytis cinerea; [10]): 65%
